Reference: patent US20230028441A1, “NOVEL HETEROARYL-TRIAZOLE COMPOUNDS AS PESTICIDES” (Bayer Aktiengesellschaft, priority 2019, published 2023)

What was measured:
Assay type in all cases: in vivo
[1] = test system: adult engorged female ticks (Rhipicephalus microplus); test: Rhipicephalus (Boophilus) microplus injection test; settings: 168 h, egg deposition after 7 days, read-out: efficacy (infertile eggs); for pest or weed control at 0.004 mg: 4 μg/animal
Procedure, shortened: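 Compound was dissolved in DMSO at 10 mg per 0.5 mL and diluted with DMSO to the test concentration. Five engorged adult females received a 1 μL abdominal injection and were kept in a climate chamber. After 7 days, fertile egg deposition was scored, with unclear eggs held until hatching at about 42 days; 100% efficacy means all eggs were infertile.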

[2] = test system: adult unfed cat fleas (Ctenocephalides felis); test: Ctenocephalides felis oral test; settings: 48 h, 100 ppm in cattle blood, after 2 days
Procedure, shortened: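 About 20 adult unfed Ctenocephalides felis fed through parafilm on cattle blood dosed with compound (DMSO stock diluted in blood), blood chamber at 37°C, fleas at room temperature. Mortality (%) scored after 2 days; 100% means all fleas killed.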

[3] = test system: adult brown dog ticks (Rhipicephalus sanguineus); test: Rhipicephalus sanguineus in-vitro contact test with adult brown dog ticks; settings: after 48 hours, read-out: efficacy (ticks dead or moribund); for pest or weed control at 1 µg/cm2, 100 g/ha: 1 μg/cm^2 (=100 g/ha); for pest or weed control at 5 µg/cm2, 500 g/ha: 5 μg/cm^2 (=500 g/ha)
Procedure, shortened: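 Compound in acetone coated onto glass tube inner walls at 900 ppm, giving 5 μg/cm^2. Adult ticks (5-10 per tube) held at room temperature for 48 h, then placed on a 45-50° C. heating plate for up to 5 min. Ticks unable to climb away counted dead or moribund; efficacy given as % dead/moribund.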

[4] = test system: larvae of the banded cucumber beetle (Diabrotica balteata); test: Diabrotica balteata spray test; settings: 168 h, after 7 days, wheat seeds, read-out: efficacy (seedlings grown up); for pest or weed control at 32 µg/disc, 100 g/ha: 100 g/ha (=32 μg/well)
Procedure, shortened: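 Germinated wheat seedlings (5 per well, agar plates) sprayed with compound in acetone/DMF diluted in water with 1000 ppm emulsifier, then infested with 10-20 larvae per unit. Efficacy scored after 7 days as % seedling growth relative to untreated, uninfested control (100% = normal growth, 0% = none).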

[5] = test system: green peach aphid (Myzus persicae); test: Myzus persicae oral test; settings: 120 h
Procedure, shortened: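 Compound was dissolved at 1 part by weight in 100 parts acetone, then diluted with water to test concentration and combined with IPL41 insect medium (33%+15% sugar). A mixed aphid population fed on this through a parafilm seal, and mortality (%) was scored after 5 days.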

[6] = test system: larvae of the southern green stink bug (Nezara viridula); test: Nezara viridula spray test; settings: in Hordeum vulgare, 96 h
Procedure, shortened: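 Barley plants infested with Nezara viridula larvae were sprayed with compound in acetone/dimethylformamide, diluted in water containing 1000 ppm alkylarylpolyglycol ether emulsifier. Mortality (%) was scored after 4 days; 100% means all stink bugs killed.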

[7] = test system: brown planthopper (Nilaparvata lugens); test: Nilaparvata lugens spray test; settings: in Oryza sativa, 96 h
Procedure, shortened: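 Rice plants (Oryza sativa) sprayed with compound in acetone/DMF diluted in water containing 1000 ppm alkylarylpolyglycol ether emulsifier, then infested with planthoppers. Mortality % scored after 4 days (100% = all killed, 0% = none killed).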

[8] = test system: fall armyworm larvae (Spodoptera frugiperda); test: Spodoptera frugiperda spray test (maize leaf sections); settings: 168 h
Procedure, shortened: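 Maize leaf sections were sprayed with compound formulated in acetone/DMF and diluted in water containing 1000 ppm emulsifier. Once dry, sections were infested with fall armyworm larvae. Mortality (%) was scored after 7 days.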

[9] = test system: Aedes aegypti strain MONHEIM; test: Aedes aegypti test (AEDSAE surface treatment & contact assay); settings: 24 hours after contact, read-out: efficacy (mortality); for mortality at 4 mg/m2: surface concentration 4 mg/m^2, 30 minutes exposure; for mortality at 20 mg/m2: surface concentration 20 mg/m^2, 30 minutes exposure
Experimental: Solvent: Aceton+2000 ppm rapeseed oil methyl ester (RME)
In order to produce a sufficient, active ingredient containing solution it is necessary to solve the test compound in the solvent-mix (acetone at 2 mg/ml/RME 2000 ppm). This solution is pipetted onto a glazed tile and after evaporation of the acetone, adult mosquitoes of the species Aedes aegypti strain MONHEIM are placed onto the dried surface. The exposure time is 30 minutes. Mortality in percent (%) is determined 24 hours after contact of the insects to the treated surface. 100% mortality means that all tested insects are dead, whereas 0% means that no insect died.

Row | SMILES | pest or weed control at 0.004 mg [1] [%] | pest or weed control at 0.02 mg ([1]; 20 μg/animal) [%] | mortality at 100 ppm [2] [%] | pest or weed control at 1 µg/cm2, 100 g/ha [3] [%] | pest or weed control at 5 µg/cm2, 500 g/ha [3] [%] | pest or weed control at 32 µg/disc, 100 g/ha [4] [%] | pest or weed control at 160 µg/disc, 500 g/ha ([4]; 500 g/ha (=160 μg/well)) [%] | mortality at 4 ppm [5] [%] | mortality at 100 g/ha [6] [%] | mortality at 500 g/ha [6] [%] | mortality at 500 g/ha [7] [%] | mortality at 100 g/ha [8] [%] | mortality at 500 g/ha [8] [%] | mortality at 4 mg/m2 [9] [%] | mortality at 20 mg/m2 [9] [%] | mortality at 100 g/ha [7] [%]
1 | CC(NC(=O)c1cc(Cl)cc(C(F)(F)F)c1)c1nc(N)nn1-c1ccc(Cl)cn1 (racemic) [I-006, N-[1-[5-amino-2-(5-chloro-2-pyridyl)-1,2,4-triazol-3-yl]ethyl]-3-chloro-5-(trifluoromethyl)benzamide] | 100 | 100 | 100 | 80 | 100 | 100 | 100 | 100 | 100 | 100 | 90 | 100 | 100 | 90 to 100 | 90 to 100 | 
2 | CNc1nc(C(C)NC(=O)c2cc(C(F)(F)F)cc(C(F)(F)F)c2)n(-c2ncccn2)n1 (centres unmarked) [I-088] | 100 |  | 100 | 100 | 100 | 100 |  | 100 | 100 |  |  | 100 |  | 90 to 100 | 90 to 100 | 100
